From publication PMC12090182, “Repurposing of the RIPK1-Selective Benzo[1,4]oxazepin-4-one Scaffold for the Development of a Type III LIMK1/2 Inhibitor” (ACS Chemical Biology, 2025)

What was measured:
Test in all cases: biochemical
Type in all cases: binding
[1] = target: 468 kinases including some pathogenic mutants (Homo sapiens, UniProt P06213); details: INSR (Entrez INSR), 100 nM; read-out: Percent Control
[2] = target: 468 kinases including some pathogenic mutants (Homo sapiens, UniProt P29597); details: read-out: Percent Control
[3] = target: 468 kinases including some pathogenic mutants (Homo sapiens, UniProt P36888); details: FLT3-autoinhibited (Entrez FLT3), 100 nM; read-out: Percent Control
[4] = target: 468 kinases including some pathogenic mutants (Homo sapiens, UniProt P17948); details: FLT1 (Entrez FLT1), 100 nM; read-out: Percent Control
[5] = target: 468 kinases including some pathogenic mutants (Homo sapiens, UniProt P29322); details: EPHA8 (Entrez EPHA8), 100 nM; read-out: Percent Control
[6] = target: 468 kinases including some pathogenic mutants (Homo sapiens, UniProt Q9BX84); details: TRPM6 (Entrez TRPM6), 1000 nM; read-out: Percent Control
[7] = target: 468 kinases including some pathogenic mutants (Homo sapiens, UniProt P08581, Y1235D); details: read-out: Percent Control
[8] = target: 468 kinases including some pathogenic mutants (Homo sapiens, UniProt Q13164); details: ERK5 (Entrez MAPK7), 100 nM; read-out: Percent Control
[9] = target: 468 kinases including some pathogenic mutants (Homo sapiens, UniProt P00519, H396P)
[10] = target: 468 kinases including some pathogenic mutants (Homo sapiens, UniProt P07947); details: YES (Entrez YES1), 100 nM; read-out: Percent Control
[11] = target: 468 kinases including some pathogenic mutants (Homo sapiens, UniProt P08581, M1250T); details: read-out: Percent Control
[12] = target: 468 kinases including some pathogenic mutants (Homo sapiens, UniProt P78362); details: SRPK2 (Entrez SRPK2), 1000 nM; read-out: Percent Control
[13] = target: 468 kinases including some pathogenic mutants (Homo sapiens, UniProt Q16566); details: CAMK4 (Entrez CAMK4), 100 nM; read-out: Percent Control
[14] = target: 468 kinases including some pathogenic mutants (Homo sapiens, UniProt Q15303); details: ERBB4 (Entrez ERBB4), 100 nM; read-out: Percent Control
[15] = target: 468 kinases including some pathogenic mutants (Homo sapiens, UniProt O00141); details: SGK (Entrez SGK1), 1000 nM; read-out: Percent Control
[16] = target: 468 kinases including some pathogenic mutants (Homo sapiens, UniProt P11309); details: PIM1 (Entrez PIM1), 100 nM; read-out: Percent Control
[17] = target: 468 kinases including some pathogenic mutants (Homo sapiens, UniProt O14965); details: AURKA (Entrez AURKA), 100 nM; read-out: Percent Control
[18] = target: 468 kinases including some pathogenic mutants (Homo sapiens, UniProt P35916); details: FLT4 (Entrez FLT4), 100 nM; read-out: Percent Control
[19] = target: 468 kinases including some pathogenic mutants (Homo sapiens, UniProt Q9H1R3); details: MYLK2 (Entrez MYLK2), 100 nM; read-out: Percent Control
[20] = target: 468 kinases including some pathogenic mutants (Homo sapiens, UniProt P24723); details: PRKCH (Entrez PRKCH), 1000 nM; read-out: Percent Control
[21] = target: 468 kinases including some pathogenic mutants (Homo sapiens, UniProt Q9BYP7); details: WNK3 (Entrez WNK3), 100 nM; read-out: Percent Control
[22] = target: 468 kinases including some pathogenic mutants (Homo sapiens, UniProt O95747); details: OSR1 (Entrez OXSR1), 100 nM; read-out: Percent Control
[23] = target: 468 kinases including some pathogenic mutants (Homo sapiens, UniProt Q9NYY3); details: PLK2 (Entrez PLK2), 1000 nM; read-out: Percent Control
[24] = target: 468 kinases including some pathogenic mutants (Homo sapiens, UniProt P22694); details: PKAC-beta (Entrez PRKACB), 100 nM; read-out: Percent Control
[25] = target: 468 kinases including some pathogenic mutants (Homo sapiens, UniProt Q9HCP0); details: CSNK1G1 (Entrez CSNK1G1), 100 nM; read-out: Percent Control
[26] = target: 468 kinases including some pathogenic mutants (Homo sapiens, UniProt Q13882); details: BRK (Entrez PTK6), 100 nM; read-out: Percent Control
[27] = target: 468 kinases including some pathogenic mutants (Homo sapiens, UniProt P51955); details: NEK2 (Entrez NEK2), 1000 nM; read-out: Percent Control
[28] = target: 468 kinases including some pathogenic mutants (Homo sapiens, UniProt Q9H093); details: SNARK (Entrez NUAK2), 100 nM; read-out: Percent Control
[29] = target: 468 kinases including some pathogenic mutants (Homo sapiens, UniProt P36888, R834Q); details: read-out: Percent Control

Sequence of 468 kinases including some pathogenic mutants (Homo sapiens, UniProt P29597) (P29597 whole entry, change not shown): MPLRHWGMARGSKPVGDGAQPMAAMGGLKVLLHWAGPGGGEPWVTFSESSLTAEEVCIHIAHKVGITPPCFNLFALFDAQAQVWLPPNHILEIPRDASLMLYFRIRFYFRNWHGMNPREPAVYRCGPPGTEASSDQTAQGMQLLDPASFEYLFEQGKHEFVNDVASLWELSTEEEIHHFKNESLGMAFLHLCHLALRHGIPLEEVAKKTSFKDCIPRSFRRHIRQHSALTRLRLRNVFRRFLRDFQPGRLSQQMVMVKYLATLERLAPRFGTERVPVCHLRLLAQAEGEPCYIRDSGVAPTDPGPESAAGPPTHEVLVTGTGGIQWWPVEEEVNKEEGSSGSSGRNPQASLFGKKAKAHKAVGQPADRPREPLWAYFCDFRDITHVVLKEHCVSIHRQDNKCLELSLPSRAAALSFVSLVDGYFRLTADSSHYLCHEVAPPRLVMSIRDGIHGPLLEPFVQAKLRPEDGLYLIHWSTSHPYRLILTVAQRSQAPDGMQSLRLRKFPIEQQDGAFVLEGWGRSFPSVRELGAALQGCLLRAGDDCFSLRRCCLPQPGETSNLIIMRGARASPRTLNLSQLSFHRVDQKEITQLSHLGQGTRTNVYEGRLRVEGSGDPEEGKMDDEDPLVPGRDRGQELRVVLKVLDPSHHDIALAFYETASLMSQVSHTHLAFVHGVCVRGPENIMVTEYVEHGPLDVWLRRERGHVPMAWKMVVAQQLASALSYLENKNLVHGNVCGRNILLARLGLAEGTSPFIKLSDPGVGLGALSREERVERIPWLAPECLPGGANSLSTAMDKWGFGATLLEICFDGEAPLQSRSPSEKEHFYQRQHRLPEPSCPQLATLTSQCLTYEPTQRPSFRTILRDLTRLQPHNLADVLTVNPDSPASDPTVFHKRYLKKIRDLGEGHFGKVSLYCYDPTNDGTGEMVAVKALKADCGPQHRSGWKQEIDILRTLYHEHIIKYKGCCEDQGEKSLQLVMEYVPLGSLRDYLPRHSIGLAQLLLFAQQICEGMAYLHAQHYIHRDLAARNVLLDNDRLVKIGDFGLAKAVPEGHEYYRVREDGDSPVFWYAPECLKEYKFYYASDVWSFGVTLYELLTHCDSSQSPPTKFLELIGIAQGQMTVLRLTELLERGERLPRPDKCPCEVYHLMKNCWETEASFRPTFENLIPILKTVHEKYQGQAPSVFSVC
Sequence of 468 kinases including some pathogenic mutants (Homo sapiens, UniProt Q9BX84) (Q9BX84 whole entry, stated change not applied): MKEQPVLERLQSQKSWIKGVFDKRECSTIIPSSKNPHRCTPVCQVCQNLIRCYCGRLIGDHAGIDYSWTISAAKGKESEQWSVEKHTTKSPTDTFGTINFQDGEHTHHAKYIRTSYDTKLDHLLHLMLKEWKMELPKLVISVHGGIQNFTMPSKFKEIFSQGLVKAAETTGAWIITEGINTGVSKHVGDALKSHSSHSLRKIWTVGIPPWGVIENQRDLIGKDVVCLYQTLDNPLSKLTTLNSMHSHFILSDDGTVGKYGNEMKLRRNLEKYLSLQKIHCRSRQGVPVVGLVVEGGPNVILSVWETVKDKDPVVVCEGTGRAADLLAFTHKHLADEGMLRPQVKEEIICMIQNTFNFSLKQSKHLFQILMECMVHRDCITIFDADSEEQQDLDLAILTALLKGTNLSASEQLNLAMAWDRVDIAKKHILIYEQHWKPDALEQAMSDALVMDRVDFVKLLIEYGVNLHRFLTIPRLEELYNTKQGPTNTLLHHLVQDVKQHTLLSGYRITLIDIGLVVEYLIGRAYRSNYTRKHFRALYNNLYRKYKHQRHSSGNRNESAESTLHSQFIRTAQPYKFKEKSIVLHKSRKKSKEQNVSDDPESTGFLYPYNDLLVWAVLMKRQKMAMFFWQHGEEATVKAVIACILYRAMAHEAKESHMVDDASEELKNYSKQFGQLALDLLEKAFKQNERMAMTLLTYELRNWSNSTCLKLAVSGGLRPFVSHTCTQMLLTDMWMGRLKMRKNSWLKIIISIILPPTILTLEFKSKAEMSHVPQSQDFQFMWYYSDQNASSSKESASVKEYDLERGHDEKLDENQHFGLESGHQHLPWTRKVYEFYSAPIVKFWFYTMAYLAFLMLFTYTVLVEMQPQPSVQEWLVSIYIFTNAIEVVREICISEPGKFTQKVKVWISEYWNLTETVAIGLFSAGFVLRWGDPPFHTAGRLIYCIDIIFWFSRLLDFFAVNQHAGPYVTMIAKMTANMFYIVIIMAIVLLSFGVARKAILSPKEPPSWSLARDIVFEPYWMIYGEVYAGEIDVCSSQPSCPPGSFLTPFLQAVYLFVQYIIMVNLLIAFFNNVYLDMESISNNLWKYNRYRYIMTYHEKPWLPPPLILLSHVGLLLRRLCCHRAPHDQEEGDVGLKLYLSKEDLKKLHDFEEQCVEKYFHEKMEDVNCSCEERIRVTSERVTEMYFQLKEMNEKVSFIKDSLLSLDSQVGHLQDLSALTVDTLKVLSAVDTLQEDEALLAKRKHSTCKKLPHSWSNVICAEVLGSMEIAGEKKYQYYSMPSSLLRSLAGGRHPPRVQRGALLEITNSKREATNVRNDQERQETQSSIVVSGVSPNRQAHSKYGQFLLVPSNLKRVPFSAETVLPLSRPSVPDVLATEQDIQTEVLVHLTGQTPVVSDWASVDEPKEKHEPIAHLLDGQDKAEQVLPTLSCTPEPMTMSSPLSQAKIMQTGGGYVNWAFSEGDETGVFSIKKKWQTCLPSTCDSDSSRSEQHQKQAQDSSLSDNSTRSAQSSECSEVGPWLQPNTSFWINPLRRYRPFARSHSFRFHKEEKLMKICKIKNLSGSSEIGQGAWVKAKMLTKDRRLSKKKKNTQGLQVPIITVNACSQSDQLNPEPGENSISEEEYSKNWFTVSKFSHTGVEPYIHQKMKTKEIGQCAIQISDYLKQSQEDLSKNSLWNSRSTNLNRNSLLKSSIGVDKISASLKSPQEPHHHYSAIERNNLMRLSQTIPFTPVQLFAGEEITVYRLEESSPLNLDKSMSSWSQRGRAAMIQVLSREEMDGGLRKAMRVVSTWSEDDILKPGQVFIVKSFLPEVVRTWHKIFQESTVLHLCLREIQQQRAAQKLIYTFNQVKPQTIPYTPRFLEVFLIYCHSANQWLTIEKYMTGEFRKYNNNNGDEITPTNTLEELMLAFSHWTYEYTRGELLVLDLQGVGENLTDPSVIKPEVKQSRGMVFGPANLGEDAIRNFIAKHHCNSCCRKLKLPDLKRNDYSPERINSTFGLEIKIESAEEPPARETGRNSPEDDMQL
Sequence of 468 kinases including some pathogenic mutants (Homo sapiens, UniProt O14965) (O14965 whole entry, change not shown): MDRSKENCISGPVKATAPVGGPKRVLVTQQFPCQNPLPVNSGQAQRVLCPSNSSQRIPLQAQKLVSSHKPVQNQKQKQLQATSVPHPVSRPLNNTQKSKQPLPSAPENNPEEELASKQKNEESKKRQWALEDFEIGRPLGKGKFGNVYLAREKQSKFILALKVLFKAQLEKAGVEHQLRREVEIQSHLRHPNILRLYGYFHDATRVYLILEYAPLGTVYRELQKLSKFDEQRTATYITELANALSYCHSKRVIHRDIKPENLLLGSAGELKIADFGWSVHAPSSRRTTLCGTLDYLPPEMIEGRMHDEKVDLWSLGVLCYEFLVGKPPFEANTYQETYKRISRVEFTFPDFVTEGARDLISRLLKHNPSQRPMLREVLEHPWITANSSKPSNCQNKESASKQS
Sequence of 468 kinases including some pathogenic mutants (Homo sapiens, UniProt Q9NYY3) (Q9NYY3 whole entry, change not shown): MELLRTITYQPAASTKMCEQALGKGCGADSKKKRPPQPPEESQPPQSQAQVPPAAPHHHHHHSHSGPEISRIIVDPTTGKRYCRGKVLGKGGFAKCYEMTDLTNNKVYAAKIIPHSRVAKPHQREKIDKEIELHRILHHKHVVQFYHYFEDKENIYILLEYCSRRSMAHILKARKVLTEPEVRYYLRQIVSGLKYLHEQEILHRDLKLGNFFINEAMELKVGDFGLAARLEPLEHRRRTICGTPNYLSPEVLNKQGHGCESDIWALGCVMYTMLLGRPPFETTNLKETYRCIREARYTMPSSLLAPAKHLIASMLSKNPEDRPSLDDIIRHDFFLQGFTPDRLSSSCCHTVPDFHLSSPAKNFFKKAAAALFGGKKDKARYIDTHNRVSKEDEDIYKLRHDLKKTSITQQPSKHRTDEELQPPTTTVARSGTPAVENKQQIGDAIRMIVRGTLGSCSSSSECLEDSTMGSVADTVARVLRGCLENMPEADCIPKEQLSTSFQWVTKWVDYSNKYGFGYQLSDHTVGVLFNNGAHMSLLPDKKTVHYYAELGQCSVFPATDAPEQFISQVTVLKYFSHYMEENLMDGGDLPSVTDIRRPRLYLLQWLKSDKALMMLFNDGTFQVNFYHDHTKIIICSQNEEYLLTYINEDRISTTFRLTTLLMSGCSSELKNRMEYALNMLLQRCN
Sequence of 468 kinases including some pathogenic mutants (Homo sapiens, UniProt Q9H093) (Q9H093 whole entry, stated change not applied): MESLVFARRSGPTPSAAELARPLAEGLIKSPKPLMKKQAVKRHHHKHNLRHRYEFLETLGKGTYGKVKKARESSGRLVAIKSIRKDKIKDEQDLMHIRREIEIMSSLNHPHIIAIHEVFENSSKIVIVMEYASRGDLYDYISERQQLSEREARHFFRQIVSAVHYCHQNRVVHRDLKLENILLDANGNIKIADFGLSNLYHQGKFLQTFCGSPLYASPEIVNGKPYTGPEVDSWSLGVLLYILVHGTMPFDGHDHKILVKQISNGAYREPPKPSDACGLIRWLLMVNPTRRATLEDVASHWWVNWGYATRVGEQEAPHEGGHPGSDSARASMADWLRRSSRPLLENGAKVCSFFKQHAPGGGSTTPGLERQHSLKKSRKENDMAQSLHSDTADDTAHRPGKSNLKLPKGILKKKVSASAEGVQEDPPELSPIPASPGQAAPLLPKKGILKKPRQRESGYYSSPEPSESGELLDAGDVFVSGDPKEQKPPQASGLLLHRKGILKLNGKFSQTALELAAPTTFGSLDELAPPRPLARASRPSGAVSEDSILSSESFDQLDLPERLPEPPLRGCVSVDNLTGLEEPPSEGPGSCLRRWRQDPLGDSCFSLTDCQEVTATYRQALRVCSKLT

Work on `CN1C(=O)[C@@H](N2CCc3c(nn(Cc4ccccc4)c3C(N)=O)C2=O)COc2cc(Cl)ccc21` [Compound 10, (S)-2-benzyl-6-(8-chloro-5-methyl-4-oxo-2,3,4,5-tetrahydrobenzo[b][1,4]oxazepin-3-yl)-7-oxo-4,5,6,7-tetrahydro-2H-pyrazolo[3,4-c]pyridine-3-carboxamide] yielded a remaining activity at 0.1 µM [1] of 100%, a remaining activity at 0.1 µM ([2]; TYK2(JH1domain-catalytic) (Entrez TYK2), 100 nM) of 72% and a remaining activity at 1 µM [2] of 100%. The remaining activity at 0.1 µM [3] was 84%, the remaining activity at 0.1 µM [4] was 78% and the remaining activity at 0.1 µM [5] was 87%. For the same compound, the remaining activity at 1 µM [6] was 100%, the remaining activity at 0.1 µM [7] was 87% and the remaining activity at 0.1 µM [8] was 85%. The “Percent Control” value ([9]; listed as LIJTF500025) was 73%, the remaining activity at 0.1 µM ([9]; read-out: Percent Control) was 67% and the remaining activity at 0.1 µM [10] was 89%. For the same compound, the remaining activity at 0.1 µM [11] was 80%, the remaining activity at 1 µM [12] was 100% and the remaining activity at 0.1 µM [13] was 76%. It also gave a remaining activity at 0.1 µM [14] of 79%, a remaining activity at 1 µM [15] of 100% and a remaining activity at 0.1 µM [16] of 93%. For the same compound, the remaining activity at 0.1 µM [17] was 58%, the remaining activity at 0.1 µM [18] was 76% and the remaining activity at 0.1 µM [19] was 90%. It also gave a remaining activity at 1 µM [20] of 100%, a remaining activity at 0.1 µM [21] of 73% and a remaining activity at 0.1 µM [22] of 100%. The remaining activity at 1 µM [23] was 100%, the remaining activity at 0.1 µM [24] was 56% and the remaining activity at 0.1 µM [25] was 80%. The remaining activity at 0.1 µM [26] was 81%, the remaining activity at 1 µM [27] was 100% and the remaining activity at 0.1 µM [28] was 84%. The remaining activity at 0.1 µM [29] was 81%.
